Results from patent publication US20250154109A1, “SODIUM CHANNEL BLOCKING COMPOUNDS, DERIVATIVES THEREOF, AND METHODS OF THEIR USE” (LATIGO BIOTHERAPEUTICS, INC, priority 2022, published 2025).
pIC50: −log10 of the molar value. Where a name gives a salt, the structure may show the parent alone. Read-outs that look alike come from different tables or passages of the source.

Target: human Nav1.8 (Homo sapiens, UniProt Q9Y5Y9)
Test: SyncroPatch384PE assay (automated patch clamp)
Type: cell-based
Details: human Nav1.8/b3 CHO cells
[1] = inactivated state block (P2 measurement), read-out: P2 IC50
[2] = resting state block (P1 measurement), read-out: P1 IC50

Sequence of human Nav1.8 (Q9Y5Y9 whole entry): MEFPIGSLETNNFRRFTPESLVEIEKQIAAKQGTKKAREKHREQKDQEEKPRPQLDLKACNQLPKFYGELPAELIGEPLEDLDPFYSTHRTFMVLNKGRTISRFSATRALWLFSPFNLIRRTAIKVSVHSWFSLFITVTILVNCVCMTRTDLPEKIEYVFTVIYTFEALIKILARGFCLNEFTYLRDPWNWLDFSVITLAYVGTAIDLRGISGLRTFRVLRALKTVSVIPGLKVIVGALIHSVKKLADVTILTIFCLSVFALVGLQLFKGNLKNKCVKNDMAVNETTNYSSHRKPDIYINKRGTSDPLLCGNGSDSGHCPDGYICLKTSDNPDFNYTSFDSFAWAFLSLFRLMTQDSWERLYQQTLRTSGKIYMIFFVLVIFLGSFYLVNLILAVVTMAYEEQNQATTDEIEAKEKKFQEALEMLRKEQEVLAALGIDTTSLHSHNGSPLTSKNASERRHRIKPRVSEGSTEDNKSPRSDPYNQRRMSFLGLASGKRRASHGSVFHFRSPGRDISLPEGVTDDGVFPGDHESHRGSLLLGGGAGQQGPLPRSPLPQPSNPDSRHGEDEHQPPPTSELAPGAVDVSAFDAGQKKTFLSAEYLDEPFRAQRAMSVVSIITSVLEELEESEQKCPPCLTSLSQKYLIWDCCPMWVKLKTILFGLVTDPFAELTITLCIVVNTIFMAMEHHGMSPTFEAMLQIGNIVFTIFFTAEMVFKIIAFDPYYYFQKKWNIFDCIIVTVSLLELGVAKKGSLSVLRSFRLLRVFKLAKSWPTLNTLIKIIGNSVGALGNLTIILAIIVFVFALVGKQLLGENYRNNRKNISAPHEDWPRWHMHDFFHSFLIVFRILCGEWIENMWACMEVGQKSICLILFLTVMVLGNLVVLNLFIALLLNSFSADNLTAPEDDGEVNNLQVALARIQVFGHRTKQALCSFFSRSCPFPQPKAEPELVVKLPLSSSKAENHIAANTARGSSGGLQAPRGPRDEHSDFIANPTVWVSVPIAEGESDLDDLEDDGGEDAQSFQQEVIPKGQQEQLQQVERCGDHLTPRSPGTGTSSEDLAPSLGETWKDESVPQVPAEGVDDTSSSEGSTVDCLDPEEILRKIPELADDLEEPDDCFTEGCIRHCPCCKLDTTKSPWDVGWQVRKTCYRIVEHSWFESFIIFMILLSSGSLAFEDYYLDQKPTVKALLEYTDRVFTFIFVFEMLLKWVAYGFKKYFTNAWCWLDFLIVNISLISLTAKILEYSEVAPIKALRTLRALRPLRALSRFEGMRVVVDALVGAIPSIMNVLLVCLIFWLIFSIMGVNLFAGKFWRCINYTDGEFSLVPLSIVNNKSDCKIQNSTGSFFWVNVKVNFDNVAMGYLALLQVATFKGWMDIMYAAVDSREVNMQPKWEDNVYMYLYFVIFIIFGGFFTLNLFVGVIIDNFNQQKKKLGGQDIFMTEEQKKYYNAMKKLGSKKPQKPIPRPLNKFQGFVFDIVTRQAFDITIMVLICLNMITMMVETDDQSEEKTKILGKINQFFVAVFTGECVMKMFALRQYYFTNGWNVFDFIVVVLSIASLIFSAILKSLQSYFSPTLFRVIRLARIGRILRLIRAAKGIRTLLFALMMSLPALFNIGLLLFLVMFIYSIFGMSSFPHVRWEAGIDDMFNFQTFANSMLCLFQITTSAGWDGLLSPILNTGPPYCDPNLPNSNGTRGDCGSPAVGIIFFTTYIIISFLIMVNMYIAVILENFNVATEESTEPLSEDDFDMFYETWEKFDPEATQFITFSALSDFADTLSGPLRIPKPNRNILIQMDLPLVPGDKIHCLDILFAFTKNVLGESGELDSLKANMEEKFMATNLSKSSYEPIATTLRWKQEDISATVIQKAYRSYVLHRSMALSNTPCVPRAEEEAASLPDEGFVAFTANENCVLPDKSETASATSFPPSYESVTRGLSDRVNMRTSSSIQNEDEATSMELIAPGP

SMILES | pIC50 [1] | pIC50 [2]
Cc1c(-c2cnn(C)c2)cnc(N2CCCC(F)(F)CC2)c1C(=O)Nc1cccc([S@@](C)(=O)=NC(=O)C2COC2)c1 [Example 54, (R)-2-(4,4-difluoroazepan-1-yl)-4-methyl-5-(1-methyl-1H-pyrazol-4-yl)-N-(3-(S-methyl-N-(oxetane-3-carbonyl)sulfonimidoyl)phenyl)nicotinamide] | 7.30 to 8.30 | 7.30 to 8.30
CNCCN=[S@](C)(=O)c1cccc(NC(=O)c2c(N3CCCC(F)(F)CC3)ncc(Br)c2C)c1 [Example 211, (R)-5-bromo-2-(4,4-difluoroazepan-1-yl)-4-methyl-N-(3-(S-methyl-N-(2-(methylamino)ethyl)sulfonimidoyl)phenyl)nicotinamide 2,2,2-trifluoroacetate] | ≥ 8.30 | ≥ 8.30
Cc1nc(N2CCOCC2)nc(N2CCCC(F)(F)CC2)c1C(=O)Nc1cccc([S@](C)(=N)=O)c1 [Example 155, (R)-4-(4,4-difluoroazepan-1-yl)-6-methyl-N-(3-(S-methylsulfonimidoyl)phenyl)-2-morpholinopyrimidine-5-carboxamide] | < 6.70 | < 6.70
CS(=N)(=O)c1cccc(NC(=O)c2cc(C(F)(F)F)nnc2N2CCCCCC2)c1 (centres unmarked) [Example 1, 3-(Azepan-1-yl)-N-(3-(S-methylsulfonimidoyl)phenyl)-6-(trifluoromethyl)pyridazine-4-carboxamide] | < 6.70 | < 6.70
CNCC(=O)N=[S@](C)(=O)c1cccc(NC(=O)c2c(N3CCCC(F)(F)CC3)ncc(-c3cnn(C4CC4)c3)c2C)c1 [Example 70, (R)-5-(1-cyclopropyl-1H-pyrazol-4-yl)-2-(4,4-difluoroazepan-1-yl)-4-methyl-N-(3-(S-methyl-N-(methylglycyl)sulfonimidoyl)phenyl)nicotinamide] | ≥ 8.30 | ≥ 8.30
Cc1c(C(F)(F)F)nnc(N2CCCCCC2)c1C(=O)N=S(C)(=O)c1cccc(N)c1 (centres unmarked) [Example 8, N-((3-aminophenyl)(methyl)(oxo)-λ^6-sulfaneylidene)-3-(azepan-1-yl)-5-methyl-6-(trifluoromethyl)pyridazine-4-carboxamide] | < 6.70 | < 6.70
Cc1nc(N2CCNCC2)nc(N2CCCC(F)(F)CC2)c1C(=O)Nc1cccc([S@](C)(=N)=O)c1 [Example 161, (R)-4-(4,4-difluoroazepan-1-yl)-6-methyl-N-(3-(S-methylsulfonimidoyl)phenyl)-2-(piperazin-1-yl)pyrimidine-5-carboxamide] | < 6.70 | < 6.70
Cc1c(-c2cnn(C)c2)cnc(N2CCCC(F)(F)CC2)c1C(=O)Nc1cccc([S@@](C)(=O)=NC(=O)[C@H](C)N)c1 [Example 76, N-(3-((R)-N-(L-alanyl)-S-methylsulfonimidoyl)phenyl)-2-(4,4-difluoroazepan-1-yl)-4-methyl-5-(1-methyl-1H-pyrazol-4-yl)nicotinamide formate] | ≥ 8.30 | ≥ 8.30
CNCC(=O)N=[S@](C)(=O)c1cccc(NC(=O)c2c(N3CCCC(F)(F)CC3)ncc(C#CC3CC3)c2C)c1 [Example 64, (R)-5-(cyclopropylethynyl)-2-(4,4-difluoroazepan-1-yl)-4-methyl-N-(3-(S-methyl-N-(methylglycyl)sulfonimidoyl)phenyl)nicotinamide] | ≥ 8.30 | ≥ 8.30
C=CCCc1ccc(C(=O)Nc2cccc([S@@](C)(=N)=O)c2)c(N2CCCC(F)(F)CC2)n1 [Example 30, (S)-6-(3-Buten-1-yl)-2-(4,4-difluoroazepan-1-yl)-N-(3-(S-methylsulfonimidoyl)phenyl)nicotinamide] | ≥ 8.30 | ≥ 8.30
CNCCN=[S@](C)(=O)c1cccc(NC(=O)c2c(N3CCCC(F)(F)CC3)ncc(-c3cnn(C)c3)c2C)c1 [Example 203, (R)-2-(4,4-difluoroazepan-1-yl)-4-methyl-5-(1-methyl-1H-pyrazol-4-yl)-N-(3-(S-methyl-N-(2-(methylamino)ethyl)sulfonimidoyl)phenyl)nicotinamide] | 7.30 to 8.30 | 7.30 to 8.30
Cc1c(-c2cccc(C#N)c2)cnc(N2CCCC(F)(F)CC2)c1C(=O)Nc1cccc(S(C)(=N)=O)c1 (centres unmarked) [Example 91, 5-(3-cyanophenyl)-2-(4,4-difluoroazepan-1-yl)-4-methyl-N-(3-(S-methylsulfonimidoyl)phenyl)nicotinamide] | 7.30 to 8.30 | 7.30 to 8.30
Cc1c(-c2cnn(C(C)C)c2)cnc(N2CCCC(F)(F)CC2)c1C(=O)Nc1cccc([S@](C)(=N)=O)c1 [Example 160, (R)-2-(4,4-difluoroazepan-1-yl)-5-(1-isopropyl-1H-pyrazol-4-yl)-4-methyl-N-(3-(S-methylsulfonimidoyl)phenyl)nicotinamide] | 7.30 to 8.30 | 7.30 to 8.30

The next lines start with the values.

pIC50 [1] | pIC50 [2] | SMILES
≥ 8.30 | ≥ 8.30 | Cc1c(Br)cnc(N2CCCC(F)(F)CC2)c1C(=O)Nc1cccc([S@@](C)(=N)=O)c1 [Example 145, (S)-5-bromo-2-(4,4-difluoroazepan-1-yl)-4-methyl-N-(3-(S-methylsulfonimidoyl)phenyl)nicotinamide]
7.30 to 8.30 | 7.30 to 8.30 | Cc1c(F)cnc(N2CCCC(F)(F)CC2)c1C(=O)Nc1cccc([S@](C)(=N)=O)c1 [Example 168, (R)-2-(4,4-difluoroazepan-1-yl)-5-fluoro-4-methyl-N-(3-(S-methylsulfonimidoyl)phenyl)nicotinamide]
7.00 to 7.30 | 6.70 to 7.00 | Cc1c(C(F)(F)F)nnc(N2CCCC(F)(F)CC2)c1C(=O)Nc1cccc(S(C)(=N)=N)c1 [Example 120, 3-(4,4-difluoroazepan-1-yl)-N-{3-[diimino(methyl)-λ^6-sulfanyl]phenyl}-5-methyl-6-(trifluoromethyl)pyridazine-4-carboxamide]
≥ 8.30 | ≥ 8.30 | Cc1c(-c2ccc(C(F)(F)F)cc2)cnc(N2CCCC(F)(F)CC2)c1C(=O)Nc1cccc([S@](C)(=N)=O)c1 [Example 169, (R)-2-(4,4-difluoroazepan-1-yl)-4-methyl-N-(3-(S-methylsulfonimidoyl)phenyl)-5-(4-(trifluoromethyl)phenyl)nicotinamide]
7.30 to 8.30 | 7.30 to 8.30 | Cc1c(C(F)(F)F)nnc(N2CCCC(F)(F)CC2)c1C(=O)Nc1cccc([S@@](C)(=N)=O)c1 [Example 29, (S)-3-(4,4-Difluoroazepan-1-yl)-5-methyl-N-(3-(S-methylsulfonimidoyl)phenyl)-6-(trifluoromethyl)pyridazine-4-carboxamide]
≥ 8.30 | ≥ 8.30 | Cc1c(C#N)c(C(F)(F)F)nc(N2CCCC(F)(F)CC2)c1C(=O)Nc1cccc([S@](C)(=N)=O)c1 [Example 56, (R)-5-cyano-2-(4,4-difluoroazepan-1-yl)-4-methyl-N-(3-(S-methylsulfonimidoyl)phenyl)-6-(trifluoromethyl)nicotinamide]
≥ 8.30 | ≥ 8.30 | Cc1c(C(=O)Nc2cccc([S@@](C)(=O)=NC(=O)CN)c2)c(N2CCCC(F)(F)CC2)nc(C(F)(F)F)c1-c1cnn(C)c1 [Example 184, (R)-2-(4,4-difluoroazepan-1-yl)-N-(3-(N-glycyl-S-methylsulfonimidoyl)phenyl)-4-methyl-5-(1-methyl-1H-pyrazol-4-yl)-6-(trifluoromethyl)nicotinamide]
≥ 8.30 | ≥ 8.30 | Cc1c(C(F)(F)F)nnc(N2CCCC(F)(F)CC2)c1C(=O)Nc1cccc([S@@](C)(=O)=NC(=O)[C@@H](C)O)c1 [Example 179, 3-(4,4-difluoroazepan-1-yl)-N-(3-((R)-N-((R)-2-hydroxypropanoyl)-S-methylsulfonimidoyl)phenyl)-5-methyl-6-(trifluoromethyl)pyridazine-4-carboxamide]
7.00 to 7.30 | 6.70 to 7.00 | Cc1c(-c2ccccc2)nnc(N2CCCC(F)(F)CC2)c1C(=O)Nc1cccc([S@@](C)(=N)=O)c1 [Example 117, (S)-3-(4,4-difluoroazepan-1-yl)-5-methyl-N-(3-(S-methylsulfonimidoyl)phenyl)-6-phenylpyridazine-4-carboxamide]
≥ 8.30 | ≥ 8.30 | Cc1nc(N2CCCC(F)(F)CC2)c(C(=O)Nc2cccc([S@@](C)(=N)=O)c2)cc1C(F)(F)F [Example 5, (S)-2-(4,4-Difluoroazepan-1-yl)-6-methyl-N-(3-(S-methylsulfonimidoyl)phenyl)-5-(trifluoromethyl)nicotinamide]
≥ 8.30 | ≥ 8.30 | Cc1c(C(F)(F)F)nnc(N2CCCC(F)(F)CC2)c1C(=O)Nc1cccc([S@@](C)(=O)=NC(=O)C2(N)CCC2)c1 [Example 234, (R)-N-(3-(N-(1-aminocyclobutane-1-carbonyl)-S-methylsulfonimidoyl)phenyl)-3-(4,4-difluoroazepan-1-yl)-5-methyl-6-(trifluoromethyl)pyridazine-4-carboxamide]
≥ 8.30 | ≥ 8.30 | Cc1nc(N2CCCC(F)(F)CC2)c(C(=O)Nc2cccc([S@](C)(=N)=O)c2)c(C)c1Br [Example 172, (R)-5-bromo-2-(4,4-difluoroazepan-1-yl)-4,6-dimethyl-N-(3-(S-methylsulfonimidoyl)phenyl)nicotinamide]
≥ 8.30 | ≥ 8.30 | Cc1c(C(=O)Nc2cccc([S@@](C)(=O)=NC(=O)CO)c2)c(N2CCCC(F)(F)CC2)nc(C(F)(F)F)c1-c1cnn(C)c1 [Example 191, (R)-2-(4,4-difluoroazepan-1-yl)-N-(3-(N-(2-hydroxyacetyl)-S-methylsulfonimidoyl)phenyl)-4-methyl-5-(1-methyl-1H-pyrazol-4-yl)-6-(trifluoromethyl)nicotinamide]
≥ 8.30 | ≥ 8.30 | Cc1c(-c2ccc(F)c(F)c2)cnc(N2CCCC(F)(F)CC2)c1C(=O)Nc1cccc([S@](C)(=N)=O)c1 [Example 59, (R)-2-(4,4-difluoroazepan-1-yl)-5-(3,4-difluorophenyl)-4-methyl-N-(3-(S-methylsulfonimidoyl)phenyl)nicotinamide]
7.30 to 8.30 | 7.30 to 8.30 | CS(=N)(=O)c1cccc(NC(=O)c2cc(C(F)(F)F)nnc2N2CCCC(F)(F)CC2)c1 (centres unmarked) [Example 6, 3-(4,4-difluoroazepan-1-yl)-N-(3-(S-methylsulfonimidoyl)phenyl)-6-(trifluoromethyl)pyridazine-4-carboxamide]
